US11214803B2, “Modulators of YAP1 expression” (Ionis Pharmaceuticals, Inc., priority 2019, dated 2022)

Assays:
CAL33 xenograft tumor = experiment: Tumor volume and tumor weight in CAL33 xenograft tumor model (Example 29); assay type: in vivo, human; conditions: 50 mg/kg twice weekly for two weeks; for Average Tumor Volume: CAL33 xenografts
Method: A xenograft tumor model was used to evaluate activity of modified oligonucleotides targeted to human Yap1. One million CAL33 cells in 30% matrigel were implanted subcutaneously into the flanks of female CrTac:NCr-Foxnlnu (Taconic) mice. When tumors reached an average volume of 100 mm^3, approximately two weeks post-implantation, groups of eight mice were administered at 50 mg/kg twice weekly with modified oligonucleotides for two weeks. ION 792169 was administered as a control.
Tumor volume was measured at the indicated days in the table below. Tumor weight was determined at end of study. Mice were sacrificed when tumors from PBS-treated mice reached 2,000 mm3.

Yap1 mRNA [1] = experiment: Yap1 mRNA in BICR56 cells, RNA analysis (Example 33); assay type: cell-based, human; conditions: free uptake, approximately 48 hours
Method: Modified oligonucleotides described in the studies above were tested at various doses in squamous cell carcinoma adherent keratinocyte cell line BICR56. A control oligonucleotide 792169 was also tested.
(§1) Cultured BICR56 cells at a density of 5000 cells per well were treated using free uptake with modified oligonucleotides diluted to concentrations described in the tables below. After approximately 48 hours, Yap1 mRNA levels were measured as previously described using the Human Yap1 primer-probe set RTS4814. Yap1 mRNA levels were normalized to actin-beta content, as measured by primer probe set RTS5002. Results are presented in the tables below as percent control of the amount of Yap1 mRNA relative to untreated control cells (% UTC).

Detroit-562 cells = experiment: Cell proliferation assay in Detroit-562 cells, CellTiter-Glo (Example 38); assay type: cell-based, human; conditions: free uptake, approximately 144 hours
Method: Modified oligonucleotides described in the studies above were tested at various doses in pharynx carcinoma cell line Detroit-562. A control oligonucleotide 792169, described herein above, was also tested.
(§2) Cultured Detroit-562 cells at a density of 1000 cells/well were treated using free uptake with modified oligonucleotides diluted to concentrations described in the tables below. After approximately 144 hours, cell proliferation was measured using the luminescent cell viability CellTiter-Glo® 2.0 Assay (Promega). Results are presented in the tables below as percent control of the amount of luminescence in samples treated with modified oligonucleotides relative to untreated control cells (% UTC).

Yap1 mRNA [2] = experiment: Yap1 mRNA in SNU-1214 cells, RNA analysis (Example 46); assay type: cell-based, human; conditions: free uptake, approximately 48 hours
Method: Modified oligonucleotides described in the studies above were tested at various doses in laryngeal squamous cell carcinoma cell line […]. A control oligonucleotide 792169, described herein above, was also tested.
as §1, with “SNU-1214” for “BICR56”

CAL33 cells = experiment: Cell proliferation assay in CAL33 cells, CellTiter-Glo (Example 36); assay type: cell-based, human; conditions: free uptake, approximately 144 hours
Method: Modified oligonucleotides described in the studies above were tested at various doses in tongue squamous cell carcinoma line CAL33. A control oligonucleotide 792169, described herein above, was also tested.
as §2, with “CAL33” for “Detroit-562”

SNU-899 cells = experiment: Cell proliferation assay in SNU-899 cells, CellTiter-Glo (Example 43); assay type: cell-based, human; conditions: free uptake, approximately 144 hours
Method: Modified oligonucleotides described in the studies above were tested at various doses in laryngeal squamous cell carcinoma cell line SNU-899. A control oligonucleotide 792169, described herein above, was also tested.
as §2, with “SNU-899” for “Detroit-562”

SCC-9 cells = experiment: Cell proliferation assay in SCC-9 cells, CellTiter-Glo (Example 40); assay type: cell-based, human; conditions: free uptake, approximately 144 hours
Method: (§3) Modified oligonucleotides described in the studies above were tested at various doses in tongue squamous cell carcinoma cell line SCC-9. A control oligonucleotide 792169, described herein above, was also tested.
as §2, with “SCC-9” for “Detroit-562”

Yap1 mRNA [3] = experiment: Yap1 mRNA in SCC-9 cells, RNA analysis (Example 40); assay type: cell-based, human; conditions: free uptake, approximately 48 hours
Method: as §3
as §1, with “SCC-9” for “BICR56”

CGCCGATAAGGTACAC (cEt gapmer, phosphorothioate backbone, further chemistry not given here) [ION 792169, reference compound]
Average Tumor weight (CAL33 xenograft tumor; CAL33 xenograft mice, end of study): 0.85 g
Average Tumor Volume (CAL33 xenograft tumor; day 10 post-implantation): 123 mm^3
Average Tumor Volume (CAL33 xenograft tumor; day 13 post-implantation): 262 mm^3
Average Tumor Volume (CAL33 xenograft tumor; day 17 post-implantation): 367 mm^3
Average Tumor Volume (CAL33 xenograft tumor; day 21 post-implantation): 531 mm^3
Average Tumor Volume (CAL33 xenograft tumor; day 24 post-implantation): 774 mm^3
Average Tumor Volume (CAL33 xenograft tumor; day 27 post-implantation): 805 mm^3
Average Tumor Volume (CAL33 xenograft tumor; day 31 post-implantation): 962 mm^3
Average Tumor Volume (CAL33 xenograft tumor; day 34 post-implantation): 1057 mm^3
Average Tumor Volume (CAL33 xenograft tumor; day 38 post-implantation): 1171 mm^3
Average Tumor Volume (CAL33 xenograft tumor; day 40 post-implantation): 1160 mm^3
Average Tumor Volume (CAL33 xenograft tumor; day 44 post-implantation): 1069 mm^3
human Yap1 mRNA expression (Yap1 mRNA [1]; 0.04 μM): 99 % UTC
human Yap1 mRNA expression (Yap1 mRNA [1]; 0.2 μM): 92 % UTC
human Yap1 mRNA expression (Yap1 mRNA [1]; 1 μM): 85 % UTC
human Yap1 mRNA expression (Yap1 mRNA [1]; 5 μM): 97 % UTC
Antiproliferative effect (cell proliferation, luminescence) (Detroit-562 cells; 0.04 μM): 99 % UTC
Antiproliferative effect (cell proliferation, luminescence) (Detroit-562 cells; 0.2 μM): 106 % UTC
Antiproliferative effect (cell proliferation, luminescence) (Detroit-562 cells; 1 μM): 100 % UTC
Antiproliferative effect (cell proliferation, luminescence) (Detroit-562 cells; 5 μM): 79 % UTC
human Yap1 mRNA expression (Yap1 mRNA [2]; 0.04 μM): 97 % UTC
human Yap1 mRNA expression (Yap1 mRNA [2]; 0.2 μM): 104 % UTC
human Yap1 mRNA expression (Yap1 mRNA [2]; 1 μM): 106 % UTC
human Yap1 mRNA expression (Yap1 mRNA [2]; 5 μM): 109 % UTC
Antiproliferative effect (cell proliferation, luminescence) (CAL33 cells; 0.04 μM): 92 % UTC
Antiproliferative effect (cell proliferation, luminescence) (CAL33 cells; 0.2 μM): 93 % UTC
Antiproliferative effect (cell proliferation, luminescence) (CAL33 cells; 1 μM): 81 % UTC
Antiproliferative effect (cell proliferation, luminescence) (CAL33 cells; 5 μM): 67 % UTC
Antiproliferative effect (cell proliferation, luminescence) (SNU-899 cells; 0.04 μM): 90 % UTC
Antiproliferative effect (cell proliferation, luminescence) (SNU-899 cells; 0.2 μM): 94 % UTC
Antiproliferative effect (cell proliferation, luminescence) (SNU-899 cells; 1 μM): 96 % UTC
Antiproliferative effect (cell proliferation, luminescence) (SNU-899 cells; 5 μM): 86 % UTC
Antiproliferative effect (cell proliferation, luminescence) (SCC-9 cells; 0.04 μM): 104 % UTC
Antiproliferative effect (cell proliferation, luminescence) (SCC-9 cells; 0.2 μM): 111 % UTC
Antiproliferative effect (cell proliferation, luminescence) (SCC-9 cells; 1 μM): 102 % UTC
Antiproliferative effect (cell proliferation, luminescence) (SCC-9 cells; 5 μM): 94 % UTC
human Yap1 mRNA expression (Yap1 mRNA [3]; 0.04 μM): 86 % UTC
human Yap1 mRNA expression (Yap1 mRNA [3]; 0.2 μM): 94 % UTC
human Yap1 mRNA expression (Yap1 mRNA [3]; 1 μM): 96 % UTC
human Yap1 mRNA expression (Yap1 mRNA [3]; 5 μM): 101 % UTC
